Key:
[1] = test system: RD29B promoter-LUC reporter; test: Protoplast transient assay, reconstituted ABA signaling pathway, RD29B-LUC reporter; assay type: cell-based, Arabidopsis thaliana; conditions: Arabidopsis protoplasts
Method: The ABA signal transduction pathway was reconstituted in protoplasts by transient transfection of PYR/PYL receptor, ABI1, SnRK2.6, and ABF2 expression plasmids. Activation of an ABA-inducible RD29B promoter-LUC reporter was determined by luciferase assays normalized for β-glucuronidase activity from a UQ10-GUS reporter.
An ABA-inducible luciferase reporter was constructed by replacing the CBF3 promoter in the CBF3-LUC construct with the promoter region of RD29B, a highly ABA-inducible gene^2. CBF3-LUC, UQ10-GUS and ABI1 protoplast expression plasmid vectors were kindly provided by Jen Sheen (Massachusetts General Hospital, Boston, Mass. 02114).
Protoplasts were isolated from Arabidopsis thaliana ecotype Columbia-0 plants, which were grown on Jiffy7 soil (Jiffy Products Ltd., Canada) in an environment-controlled chamber at 22° C. with a photosynthetically active radiation of 75 μmol m^−2 s^−1 and a day/night cycle of 13 hours light/11 dark. Transient activity assays were performed in Arabidopsis mesophyll protoplasts from Columbia-0 wild-type plants as described by the Sheen laboratory^33. Transfected protoplasts were incubated for 5 hours in light in the presence of 0 or 5 μM (+) ABA and the indicated concentrations of pyrabactin, and then used for measuring LUC and GUS activity. […]

[2] = test system: PYL4 / PP2Cs (HAB1, ABI1, ABI2); test: In vitro PYL4-PP2C interaction; assay type: biochemical; conditions: purified proteins in vitro
Method: To determine the biochemical basis of these observations, we used purified proteins of PYR1 and PYL1 to PYL6 to measure their interactions with three PP2Cs, HAB1, ABI1, and ABI2, in vitro. […] In phosphatase assays, pyrabactin promoted PYR1, PYL1, PYL3, PYL5, and PYL6, but not PYL2 and PYL4, to inhibit all three PP2Cs.
Mutant proteins were expressed as H6GST-fusion proteins and purified by glutathione sepharose chromatography. Protein-protein interactions were determined by luminescence proximity AlphaScreen assay. Biotinylated PP2C proteins for the luminescence proximity assay were generated by in vivo biotinylation of avitag-PP2C fusion proteins. PP2C phosphatase activity was measured by phosphate release from a SnRK2.6 phosphoprotein.
Interactions between PYR/PYL and PP2Cs were assessed by luminescence-proximity AlphaScreen technology (Perkin Elmer). Briefly, biotinylated PP2Cs were attached to streptavidin-coated donor beads, and H6-tagged PYR/PYL receptors were attached to nickel-chelated acceptor beads. The donor and acceptor beads were brought into proximity by the interactions between PYR/PYLs and PP2Cs, which were measured with and without ligands. When excited by a laser beam of 680 nm, the donor beam emits singlet oxygen that activates thioxene derivatives in the acceptor beads, which releases photons of 520-620 nm as the binding signal. […]

[3] = test system: HAB1 PP2C / PYR/PYL receptors; conditions: yeast two-hybrid; cited from earlier work

Structure (SMILES): O=S(=O)(NCc1ccccn1)c1ccc(Br)c2ccccc12 [Pyrabactin, pyrabactin]
- PYL2 and ABA-dependent induction of the ABA-inducible reporter ([1]; receptor PYL2, with ABA): inhibited
- PYR1-dependent induction of the ABA-inducible reporter RD29B-LUG ([1]; receptor PYR1, concentration-dependent): promoted
- Promotion of PYL4 interaction with the three PP2Cs [2]: promoted interaction
- Interaction of the HAB1 PP2C with PYL1 [3]: promoted
- Interaction of the HAB1 PP2C with PYL2 [3]: not
- Interaction of the HAB1 PP2C with PYL3 [3]: promoted
- Interaction of the HAB1 PP2C with PYL4 [3]: not
- Interaction of the HAB1 PP2C with PYR1 [3]: promoted

Reference: patent US20130045952A1, “ABA Receptor Agonists for Increased Plant Stress Resistance” (Van Andel Research Institute, priority 2011, published 2013)
